Results reported in US20050074834A1 (priority 2001, published 2005).
Entries after “also recorded” stand apart in the source; their conditions may differ. No end group written: not given here.

How the values were obtained:
[1] = test system: chromatophores
[2] = test system: fish chromatophores; format: cell-based
[3] = test system: melanophores; format: cell-based
[4] = test system: chromatophores; assay: cells; settings: read-out: Threshold concentration PPM
[5] = test system: erythrophores; format: cell-based
[6] = test system: iridophores; format: cell-based
[7] = test system: Betta splendens erythrophores; format: cell-based
[8] = test system: Betta chromatophores; format: cell-based

With `O=C(O)c1ccccc1O` [Salicylate] the “Chromatophore response (cell spans the chromatophore type columns)” value [1] was “Imp. (FS)” and the “Threshold concentration PPM” value [1] was “XX (key: X=1 to 100 PPM; XX=100 to 1000 PPM)”.

For `O=S(=O)(F)Cc1ccccc1` [PMSF, phenylmethylsulfonyl fluoride], the “effect of PMSF on sensitivity to H89” value [2] was “heightens the sensitivity of cells to H89; also recorded: increased sensitivity to H89 inhibition”, the “Chromatophore response (cell spans the chromatophore type columns)” value [1] was “Imp. (FS)” and the “Threshold concentration PPM” value [1] was “X (key: X=1 to 100 PPM; XX=100 to 1000 PPM)”.

With `C=C1[C@@H](C)[C@H]2[C@H](Cc3ccccc3)NC(=O)[C@]23[C@H](OC(C)=O)/C=C/[C@@](C)(O)C(=O)[C@@H](C)C/C=C/[C@H]3[C@@H]1O` [Cytochalasin D] the “Chromatophore response Melanophores” value [3] was “Imp” and the “Threshold concentration PPM” value [1] was “XX (key: X=1 to 100 PPM; XX=100 to 1000 PPM)”.

With `c1ccc(C2CC2)c(OCC2=NCCN2)c1` [cirazoline] the “chromatophore response after forskolin and PMSF” value [2] was “no aggregation occurred”, the “chromatophore response in the absence of forskolin” value [2] was “aggregate; also recorded: aggregation” and the “chromatophore response in the presence of forskolin” value [2] was “unresponsive; also recorded: not detectable”.

In the case of `CCCCCCC(C)(C)c1ccc([C@@H]2C[C@H](O)CC[C@H]2CCCO)c(O)c1` [Cannabinoid CP-55940, CP-55940], the “Chromatophore response (cell spans the chromatophore type columns)” value [1] was “Disp. (FS)”.

For `CC(COc1ccccc1)N(CCCl)Cc1ccccc1` (centres unmarked) [Phenoxy-benzamine], the “Chromatophore response (cell spans the chromatophore type columns)” value [1] was “Blocks norepinephrine”.

`COc1cc(CNC(=O)CCCC/C=C/C(C)C)ccc1O` [Capsaicin] was tested, and the “Chromatophore response Melanophores” value [3] was “Hollow-” and the minimal effective concentration [4] was 1 to 100 µg/mL.

`C=C(C=O)C[C@@H]1C[C@H](O)[C@]2(C)O[C@@H]3C[C@@H]4O[C@@H]5C[C@]6(C)O[C@]7(C)CC[C@@H]8O[C@@H]9C[C@]%10(C)O[C@@H]%11C(C)=CC(=O)O[C@H]%11C[C@H]%10O[C@H]9C[C@@H](C)[C@H]8O[C@H]7C[C@H]6O[C@H]5C/C=C\[C@H]4O[C@H]3C[C@H]2O1` [Brevetoxin] was tested, and the “Chromatophore response (cell spans the chromatophore type columns)” value [1] was “Aggr. (FS)”, the “Response time Hr.” value [1] was “X (key: X=1-6 hr; XX=6-24 hr)” and the “Threshold concentration PPM” value [1] was “X (key: X=1 to 100 PPM; XX=100 to 1000 PPM)”.

`COP(=O)(OC)OC=C(Cl)Cl` [Dichlorvos] was tested, and the “Chromatophore response Erythrophores” value [5] was “Imp. (FS)”, the “Chromatophore response Iridophores” value [6] was “Hue change, then Imp” and the “Response time Hr.” value [1] was “X (key: X=1-6 hr; XX=6-24 hr)”.

In the case of “Substance P (RPKPQQFFGLM; ends and bridges not checked; UniProt P20366 58-68, looked up)”, the “Chromatophore response (cell spans the chromatophore type columns)” value [1] was “Hue changes (FS)”.

With `NCCNS(=O)(=O)c1cccc2cnccc12` [Protein kinase inhibitor H-9] the “Chromatophore response Melanophores” value [3] was “Disp” and the “Threshold concentration PPM” value [1] was “XX (key: X=1 to 100 PPM; XX=100 to 1000 PPM)”.

With `CNCCNS(=O)(=O)c1cccc2cnccc12` [Protein kinase inhibitor H-8] the “Chromatophore response Melanophores” value [3] was “Disp” and the “Threshold concentration PPM” value [1] was “XX (key: X=1 to 100 PPM; XX=100 to 1000 PPM)”.

`COP(=O)(OC)C(O)C(Cl)(Cl)Cl` (centres unmarked) [Trichlorfon] was tested, and the “Chromatophore response Erythrophores” value [5] was “Imp. (FS)”, the “Chromatophore response Iridophores” value [6] was “Hue change (FS)” and the “Response time Hr.” value [1] was “X (key: X=1-6 hr; XX=6-24 hr)”.

For `OO` [Hydrogen peroxide], the “Chromatophore response (cell spans the chromatophore type columns)” value [1] was “Imp. (FS)” and the minimal effective concentration [4] was 100 to 1000 µg/mL.

`NCCc1c[nH]cn1` [Histamine] was tested, and the minimal effective concentration [4] was 100 to 1000 µg/mL.

`[Pb]` [Pb] was tested, and the “Chromatophore response (cell spans the chromatophore type columns)” value [1] was “Imp. (FS)” and the “Threshold concentration PPT” value [1] was “X (key: X=1 PPT or higher)”.

`C=O` [Formaldehyde] was tested, and the minimal effective concentration [4] was 100 to 1000 µg/mL.

Molecule `CC(=O)OCC[N+](C)(C)C` [Acetylcholine] has a minimal effective concentration [4] of 1 to 100 µg/mL.

`COc1ccc(CCN(C)CCCC(C#N)(c2ccc(OC)c(OC)c2)C(C)C)cc1OC` (centres unmarked) [Verapamil] was tested, and the “Morphology Effect: Aggregation” value [7] was “No”, the “Morphology Effect: Dispersion” value [7] was “Yes” and the “erythrophore pigment dispersion response, control” value [7] was “failed to induce pigment dispersion response”. The “erythrophore pigment response after norepinephrine pre-treatment” value [7] was “produces pigment dispersion”, the “erythrophore response to verapamil” value [7] was “rapid dispersion; also recorded: disperse almost as completely as possible; also recorded: pigment dispersion; also recorded: larger dispersion” and the “Threshold concentration PPB” value [1] was “X (key: X=1 to 100 PPB; XX=100 to 1000 PPB)”.

“Pertussis toxin: Bacterial toxin, Pertussis toxin” was tested, and the “Chromatophore response Melanophores” value [3] was “Imp”, the “selective sensitivity of color classes of chromatophores” value [8] was “melanophores to pertussis toxin” and the “Response time Hr.” value [1] was “X (key: X=1-6 hr; XX=6-24 hr)”. The “Threshold concentration PPM” value [1] was “X (key: X=1 to 100 PPM; XX=100 to 1000 PPM)”.

`C[C@]12CCC(=O)C=C1CC[C@@H]1[C@@H]2[C@@H](O)C[C@@]2(C)[C@H]1CC[C@]2(O)C(=O)CO` [Hydrocortisone] was tested, and the “Chromatophore response Melanophores” value [3] was “Hyp. D”, the “Chromatophore response Erythrophores” value [5] was “HypD” and the “Response time Hr.” value [1] was “XX (key: X=1-6 hr; XX=6-24 hr)”.

With `CNCCCN1c2ccccc2CCc2ccccc21` [Desipramine] the “Chromatophore response (cell spans the chromatophore type columns)” value [1] was “Aggr. (FS)” and the minimal effective concentration [4] was 1 to 100 µg/mL.

For `c1ccc2cc3c(ccc4ccccc43)cc2c1` [1,2-Benzanthracene], the “Chromatophore response Erythrophores” value [5] was “Imp” and the “Threshold concentration PPM” value [1] was “X (key: X=1 to 100 PPM; XX=100 to 1000 PPM)”.

With `COC(=O)C1=C(C)NC(C)=C([N+](=O)[O-])C1c1ccccc1C(F)(F)F` (centres unmarked) [Bay K8644] the “erythrophore pigment response on direct application” value [7] was “neither the aggregation nor dispersion of erythrophore pigment”.

In the case of `COc1cc2c(c(OC)c1OC)-c1ccc(OC)c(=O)cc1[C@@H](NC(C)=O)CC2` [Colchicine], the minimal effective concentration [4] was 100 to 1000 µg/mL.

With `NCCc1c[nH]c2ccc(O)cc12` [Serotonin] the “Chromatophore response (cell spans the chromatophore type columns)” value [1] was “Partial Aggr” and the minimal effective concentration [4] was 1 to 100 µg/mL.

`CCOC(=O)c1cccc(N)c1` [Tricaine] was tested, and the “Chromatophore response Melanophores” value [3] was “Disp” and the “Threshold concentration PPM” value [1] was “X (key: X=1 to 100 PPM; XX=100 to 1000 PPM)”.

For `CC(N)Cc1ccccc1` (centres unmarked) [Amphetamine], the “Chromatophore response (cell spans the chromatophore type columns)” value [1] was “Aggr. (FS)” and the minimal effective concentration [4] was 1 to 100 µg/mL.

In the case of `Cc1ccc(N(CC2=NCCN2)c2cccc(O)c2)cc1` [Phentolamine], the “Chromatophore response (cell spans the chromatophore type columns)” value [1] was “Blocks norepinephrine”.

For `O=S(=O)(NCCNC/C=C/c1ccc(Br)cc1)c1cccc2cnccc12` [H89], the “chromatophore response in the absence of forskolin” value [2] was “aggregate; also recorded: aggregation” and the “chromatophore response in the presence of forskolin” value [2] was “continues to be responsive; also recorded: still results in cell aggregation”.

`COC(=O)[C@@]1(O)C[C@H]2O[C@]1(C)n1c3ccccc3c3c4c(c5c6ccccc6n2c5c31)C(=O)NC4` [Protein kinase inhibitor K252a] gave a minimal effective concentration [4] of 1 to 100 µg/mL.

μ-Conotoxin GVIA was tested, and the “Morphology Effect: Aggregation” value [7] was “No” and the “Morphology Effect: Dispersion” value [7] was “No”.

For `c1ccc2c(c1)-c1cccc3cccc-2c13` [Fluoranthene], the minimal effective concentration [4] was 1 to 100 µg/mL.

With `[Ni]` [Ni] the “Chromatophore response (cell spans the chromatophore type columns)” value [1] was “Imp. (FS)” and the “Threshold concentration PPT” value [1] was “X (key: X=1 PPT or higher)”.

`C/C=C(/C)C(=O)O[C@H]1C(C)=C2[C@H]([C@@H]1OC(=O)CCCCCCC)[C@@](C)(OC(C)=O)C[C@H](OC(=O)CCC)[C@@]1(O)[C@H]2OC(=O)[C@@]1(C)O` [Thapsigargin] was tested, and the “Morphology Effect: Aggregation” value [7] was “Yes” and the “Morphology Effect: Dispersion” value [7] was “No”.

For `COC(=O)[C@@H]1[C@H]2C[C@H]3c4[nH]c5ccccc5c4CCN3C[C@@H]2CC[C@@H]1O` [Yohimbine], the “Chromatophore response (cell spans the chromatophore type columns)” value [1] was “Blocks norepinephrine”.

`[Cu]` [Cu] was tested, and the “Chromatophore response (cell spans the chromatophore type columns)” value [1] was “Imp. (FS)” and the “Threshold concentration PPT” value [1] was “X (key: X=1 PPT or higher)”.

With `N` [Ammonium] the “Chromatophore response (cell spans the chromatophore type columns)” value [1] was “Imp. (FS)” and the “Threshold concentration PPM” value [1] was “XX (key: X=1 to 100 PPM; XX=100 to 1000 PPM)”.

With `c1cc2ccc3cccc4ccc(c1)c2c34` [Pyrene] the minimal effective concentration [4] was 1 to 100 µg/mL.

`CC(=O)OCOC(=O)CN(CC(=O)OCOC(C)=O)c1ccccc1OCCOc1ccccc1N(CC(=O)OCOC(C)=O)CC(=O)OCOC(C)=O` [BAPTA/AM] was tested, and the “Morphology Effect: Aggregation” value [7] was “No”, the “Morphology Effect: Dispersion” value [7] was “Yes” and the “erythrophore pigment response on addition” value [7] was “pigment dispersion”.

For `C[C@H](CCC(=O)O)C[C@H](C)C[C@H](C)C(=O)/C=C(\O)[C@H](C)C[C@H](C)C/C=C/[C@@H](C)[C@@H](O)[C@@H](C)[C@@H](O)C[C@@H]1CC[C@@](C)([C@H]2CC[C@@](C)([C@@H](C)O)O2)O1` [Ionomycin], the “Morphology Effect: Aggregation” value [7] was “Yes”, the “Morphology Effect: Dispersion” value [7] was “No” and the “erythrophore pigment response on addition” value [7] was “slight, but sustained aggregation”.

In the case of MCH, the “Chromatophore response Melanophores” value [3] was “Aggr” and the “Threshold concentration PPB” value [1] was “X (key: X=1 to 100 PPB; XX=100 to 1000 PPB)”.

With `CNc1ccc2oc(C[C@H]3O[C@@]4(CC[C@H]3C)O[C@H]([C@H](C)C(=O)c3ccc[nH]3)[C@H](C)C[C@H]4C)nc2c1C(=O)O` [A23187] the “Morphology Effect: Aggregation” value [7] was “No” and the “Morphology Effect: Dispersion” value [7] was “No”.

For `[Ag]` [Ag], the “Chromatophore response (cell spans the chromatophore type columns)” value [1] was “Imp. (FS)” and the “Threshold concentration PPT” value [1] was “X (key: X=1 PPT or higher)”.

With `CCOP(=S)(Oc1ccc([N+](=O)[O-])cc1)c1ccccc1` (centres unmarked) [EPN] the “Response time Hr.” value [1] was “X (key: X=1-6 hr; XX=6-24 hr)” and the “Threshold concentration PPM” value [1] was “XX (key: X=1 to 100 PPM; XX=100 to 1000 PPM)”.

In the case of `C=CC[C@@H](CC/C(C)=C/C=C/CC/C=C\[C@@H]1CSC([C@@H]2C[C@@H]2C)=N1)OC` [Curacin A], the “Chromatophore response (cell spans the chromatophore type columns)” value [1] was “Aggr. and Imp. (FS)”, the “Response time Hr.” value [1] was “X (key: X=1-6 hr; XX=6-24 hr)” and the “Threshold concentration PPM” value [1] was “X (key: X=1 to 100 PPM; XX=100 to 1000 PPM)”.

`CN(C)CCC(c1ccccc1)c1ccccn1` (centres unmarked) [Pheniramine] gave a minimal effective concentration [4] of 100 to 1000 µg/mL.

In the case of `Nc1ncnc2c1ncn2[C@@H]1O[C@H](CO)[C@@H](O)[C@H]1O` [Adenosine], the “Chromatophore response (cell spans the chromatophore type columns)” value [1] was “Disp” and the minimal effective concentration [4] was 100 to 1000 µg/mL.

In the case of `c1cc2c3c(cccc3c1)CC2` [Acenapthene], the “Chromatophore response Erythrophores” value [5] was “Imp” and the “Threshold concentration PPM” value [1] was “X (key: X=1 to 100 PPM; XX=100 to 1000 PPM)”.

For `NCCc1ccc(O)c(O)c1` [Dopamine], the “Chromatophore response (cell spans the chromatophore type columns)” value [1] was “Aggr. (FS)” and the minimal effective concentration [4] was 100 to 1000 µg/mL.
